Reference: publication PMC6070797 (Marine Drugs, 2018)

What was measured:
[1] = system: Mouse splenocyte proliferation (T lymphocytes); assay: Immunosuppressive activity: ConA-induced proliferation of mouse splenocytes (T lymphocytes), CCK8; format: cell-based, BALB/c mice; conditions: BALB/c spleen cells, 5 μg/mL ConA, 24 h, mean ± SD of three triplicate experiments
Excerpt: To assess the biological activity of the MPA derivatives, we primarily evaluated their IMPDH2 inhibitory activity with the previously reported enzyme assay method. […] Subsequently, the MPA derivatives were further tested for the in vitro immunosuppressive activity against the proliferation of T lymphocytes. Unsurprisingly, the activity at the cellular level was markedly consistent with their IMPDH2 inhibitory activity.
BALB/c mice were sacrificed by cervical dislocation, and the spleens were removed aseptically. Mononuclear cell suspensions were prepared after cell debris, and clumps were removed. Erythrocytes were depleted with ammonium chloride buffer solution. Lymphocytes were washed and suspended in DMEM medium supplemented with 10% FBS, penicillin (100 U/mL), and streptomycin ([…]). The 5 × 10^5 (150 μL per well) spleen cells in 96-well microtiter plates were cultured at 37 °C in a humidified and 5% CO2-containing incubator for 24 h in the presence or absence of the serious concentrations (ranging from 0.1 to 100 µM) of compounds. The cultures were stimulated with 5 μg/mL of concanavalin A (ConA) to induce T cells proliferative response. After treatment for 24 h, the cell quantity was measured using a CCK8 assay kit according to the manufacturer’s instructions.

IMPDH2 = biological target: T1, IMPDH2 (Homo sapiens, UniProt P12268); assay: IMPDH2 enzyme inhibition assay (recombinant protein, absorbance at 340 nm); format: biochemical; conditions: recombinant IMPDH2, IMP and NAD+ substrates, pH 7.2, 37 °C; mean ± SD of three triplicate experiments; read-out: IC50 Inosine-5′-Monophosphate Dehydrogenase (IMPDH2)
T1 construct: made in house; host or cells: Escherichia coli BL21(DE3)
Method: The gene encoding IMPDH2 was cloned into the pET-28a vector (Novagen). After the recombinant plasmids were verified by sequencing, the plasmid was transformed into Escherichia coli BL21(DE3) (Invitrogen), which was grown in LB medium at 37 °C to an OD600 (0.8–1.0) and induced by 0.4 mM isopropyl-D-thiogalactopyranoside (IPTG) and grown at 20 °C for 16 h. The cell pellet was harvested and re-suspended in 30 mL buffer (20 mM Tris pH 8.5, 200 mM NaCl, and 10 mM imidazole), followed by disruption on a French press. Cell debris was removed by centrifugation at 21,000 rpm for 30 min. […] The protein was further purified with size exclusion chromatography at 20 mM Tris pH 8.5 and 200 mM NaCl.
The IMPDH2 inhibitory effects of test compounds were measured using the recombinant protein above. The enzyme solution (20 µL, 10 µg/mL), test compounds (10 µL) and buffer (40 µL, 100 mM phosphate buffer, pH 7.2) were pipetted and mixed in a 96-well microtiter plate. The mixture was incubated for 10 min at 37 °C. After incubation, inosine 5′-monophosphate (IMP) substrate solution (30 µL, 2.5 mM) and NAD^+ (30 µL, 5 mM) were added. The reaction can be readily monitored by an increase in optical absorbance at 340 nm. […] The data were imported into Prism (version 5.0, GraphPad) and the IC50 values were calculated by using a standard dose response curve fitting.

Row | IC50 (IMPDH2) | SMILES | IC50 [1]
1 | 0.92 ± 0.08 µM | COCc1c2c(c(O)c(C/C=C(\C)CCC(=O)O)c1OC)C(=O)OC2 [Compound 1, 8-O-methyl mycophenolic acid] | 4.21 ± 0.2 µM
2 | 0.95 ± 0.09 µM | COc1c(C)c2c(c(O)c1C/C=C(\C)CCC(=O)O)C(=O)OC2O (stereo not drawn) [Compound 2, 3-hydroxy mycophenolic acid] | 1.23 ± 0.07 µM
3 | 0.84 ± 0.11 µM | COc1c(C)c2c(c(O)c1C/C=C(\C)CCC(=O)O)C(=O)OC2OC (stereo not drawn) [Compound 3, 6-(5-carboxy-3-methylpent-2-enyl)-7-hydroxy-3,5-dimethoxy-4-methylphthalan-1-one] | 2.76 ± 0.13 µM
4 | 3.27 ± 0.18 µM | COC(=O)CC/C(C)=C/Cc1c(O)c2c(c(C)c1OC)C(O)OC2=O (stereo not drawn) [Compound 4, 6-(5-methoxycarbonyl-3-methylpent-2-enyl)-3,7-dihydroxy-5-methoxy-4-methylphthalan-1-one] | 9.12 ± 0.38 µM
5 | 24.7 ± 2.74 µM | COc1c(C)c2c(c(O)c1CCC(C)C(=O)O)C(=O)OC2 (stereo not drawn) [Compound 5, 6-(3-carboxybutyl)-7-hydroxy-5-methoxy-4-methylphthalan-1-one] | > 40 µM
6 | 8.59 ± 0.43 µM | COc1c(C)c2c(c(O)c1C/C=C(\C)CCC(=O)OCC(O)CO)C(=O)OC2 (stereo not drawn) [Compound 6, 6-[5-(2,3-dihydroxy-1-carboxyglyceride)-3-methylpent-2-enyl]-7-hydroxy-5-methoxy-4-methylphthalan-1-one] | 19.7 ± 0.89 µM
7 | 12.6 ± 1.86 µM | COc1c(C)c2c(c(O)c1C/C=C(\C)CCC(=O)NCCCC(=O)O)C(=O)OC2 [Compound 7, 6-[5-(1-carboxy-4-N-carboxylate)-3-methylpent-2-enyl]-7-hydroxy-5-methoxy-4-methylphthalan-1-one] | 24.6 ± 1.34 µM
8 | 15.7 ± 1.65 µM | COc1c(C)c2c(c(O)c1C/C=C(\C)CCC(=O)N[C@H](C(=O)O)C(C)C)C(=O)OC2 [Compound 8, N-mycophenoyl-L-valine] | 30.6 ± 2.19 µM
9 | 23.8 ± 3.54 µM | COc1c(C)c2c(c(O)c1C/C=C(\C)CCC(=O)N[C@@H](Cc1ccccc1)C(=O)O)C(=O)OC2 [Compound 9, N-mycophenoyl-L-phenyloalanine] | > 40 µM
10 | 17.5 ± 1.3 µM | COc1c(C)c2c(c(O)c1C/C=C(\C)CCC(=O)N[C@@H](C)C(=O)O)C(=O)OC2 [Compound 10, N-mycophenoyl-L-alanine] | > 40 µM
11 |  | COc1c(C)c2c(c(O)c1C/C=C(\C)CCC(=O)O)C(=O)OC2 [MPA (11), Mycophenolic acid, reference compound] | 0.96 ± 0.05 µM
